# According to patent US6875760B2 (Novo Nordisk A/S, priority 1999, dated 2005):
# Target: T1, cloned human glucagon receptor (Homo sapiens, UniProt P47871)
# T1 construct: expressed in transfected cells; plasma membrane preparation
# Assay: Glucagon Binding Assay (II)
# Details: not given
# T1 sequence (P47871 26-477): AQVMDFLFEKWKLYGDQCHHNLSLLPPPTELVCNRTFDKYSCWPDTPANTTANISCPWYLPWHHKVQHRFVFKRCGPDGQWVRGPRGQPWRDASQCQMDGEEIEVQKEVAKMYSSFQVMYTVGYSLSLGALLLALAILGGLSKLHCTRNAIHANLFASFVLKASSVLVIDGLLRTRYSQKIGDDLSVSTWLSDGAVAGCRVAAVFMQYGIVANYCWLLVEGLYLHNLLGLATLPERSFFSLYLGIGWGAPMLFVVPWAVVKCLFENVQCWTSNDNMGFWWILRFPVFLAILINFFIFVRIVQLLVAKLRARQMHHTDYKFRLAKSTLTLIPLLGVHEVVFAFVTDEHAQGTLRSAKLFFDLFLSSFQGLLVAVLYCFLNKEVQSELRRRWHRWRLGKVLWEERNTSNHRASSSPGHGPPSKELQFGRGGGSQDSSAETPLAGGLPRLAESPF
row,IC50 [nM],Compound
1,140,CC(C)CC1CCC(N(Cc2ccc(C(=O)NCCC(=O)O)cc2)C(=O)Nc2ccc(OC(F)(F)F)cc2)CC1 (stereo not shown)

# Same assay, conditions: plasma membranes of BHK cells expressing the receptor; read-out: Glu Bd Assay (II) IC50
row,Compound,IC50 [nM]
1,"CC(C)(C)C1CCC(N(Cc2ccc(C(=O)NCCC(=O)O)cc2)C(=O)Nc2ccc3ccccc3c2)CC1 (stereo not shown) [Example 102, 3-{4-[1-(4-tert-Butylcyclohexyl)-3-naphthalen-2-ylureidomethyl]benzoylamino)propionic acid]",167
2,"CC(C)(C)C1CCC(N(Cc2ccc(C(=O)NCc3nn[nH]n3)cc2)C(=O)Nc2cc(Cl)cc(Cl)c2)CC1 (stereo not shown) [Example 173, 4-[1-(4-tert-Butylcyclohexyl)-3-(3,5-dichlorophenyl)ureidomethyl]-N-(2H-tetrazol-5-ylmethyl)benzamide]",23
3,CC1CCC(N(Cc2ccc(C(=O)NCCC(=O)O)cc2)C(=O)Nc2ccc(-c3ccccc3)cc2)CC1 (stereo not shown),516
4,"CC(C)(C)C1CCC(N(Cc2ccc(C(=O)Nc3nn[nH]n3)cc2)C(=O)Nc2cc(Cl)cc(Cl)c2)CC1 (stereo not shown) [Example 172, 4-[1-(4-tert-Butylcyclohexyl)-3-(3,5-dichlorophenyl)ureidomethyl]-N-(2H-tetrazol-5-yl)benzamide]",7
5,"O=C(O)CCNC(=O)c1ccc(CN(C(=O)Nc2ccc(OC(F)(F)F)cc2)c2ccc(C3CCCCC3)cc2)cc1 [Example 179, 3-{4-[1-(4-Cyclohexylphenyl)-3-(4-trifluoromethoxyphenyl)ureidomethyl]benzoylamino}propionic acid]",33

# The next lines start with the values.
row,IC50 [nM],Compound
1,17,"O=C(O)CCNC(=O)c1ccc(CN(C(=O)Nc2cc(Cl)cc(Cl)c2)c2ccc(C3CCCCC3)cc2)cc1 [Example 232, 3-{4-[1-(4-Cyclohexylphenyl)-3-(3,5-dichlorophenyl)ureidomethyl]benzoylamino}propionic acid]"
2,3,"O=C(Nc1nn[nH]n1)c1ccc(CN(C(=O)Nc2ccc(Cl)c(C(F)(F)F)c2)c2ccc(C3CCCCC3)cc2)cc1 [Example 282, 4-[3-(4-Chloro-3-trifluoromethylphenyl)-1-(4-cyclohexylphenyl)ureidomethyl]-N-(2H-tetrazol-5-yl)benzamide]"
3,224,"CC(C)(C)C1CCC(N(Cc2ccc(C(=O)Nc3nn[nH]n3)cc2)C(=O)C=Cc2c(Cl)cccc2Cl)CC1 (stereo not shown) [Example 477, 4-({(4-tert-Butylcyclohexyl)-[3-(2,6-dichlorophenyl)acryloyl]amino}methyl)-N-(2H-tetrazol-5-yl)benzamide]"
4,15,"O=C(O)CCNC(=O)c1ccc(CN(C(=O)Nc2cc(Cl)cc(Cl)c2)c2ccc(C3=CCCCC3)cc2)cc1 [Example 605, 3-{4-[1-(4-Cyclohex-1-enylphenyl)-3-(3,5-dichlorophenyl)ureidomethyl]benzoylamino}propionic acid]"
5,1850,"O=C(O)CCNC(=O)c1ccc(CN(C(=O)Nc2ccc3[nH]ccc3c2)c2ccc(C3CCCCC3)cc2)cc1 [Example 607, 3-{4-[1-(4-Cyclohexylphenyl)-3-(1H-indol-5-yl)ureidomethyl]benzoylamino}propionic acid]"
6,44,"O=C(O)CCNC(=O)c1ccc(CN(Cc2ccc(OC(F)(F)F)cc2)[C@H]2CC[C@@H](C3CCCCC3)CC2)cc1 [Example 570, 3-(4-{[(cis-4-Cyclohexylcyclohexyl)-(4-trifluoromethoxybenzyl)amino]methyl}benzoylamino)propionic acid]"

# Same assay, conditions: screened at 1 μM; library compounds; read-out: displacement of the glucagon tracer when screened at 1 μM concentration in the glucagon binding assay II
row,inhibition at 1 µM [%],Compound
1,> 50,"CC(C)(C)C1CCC(N(Cc2ccc(C(=O)NCCC(=O)O)o2)C(=O)Nc2cccc(SC(F)(F)F)c2)CC1 (stereo not shown) [Example 211, 3-({5-[1-(4-tert-Butylcyclohexyl)-3-(3-trifluoromethylsulfanylphenyl)ureidomethyl]furan-2-carbonyl}amino)propionic acid]"
2,> 50,"O=C(O)CCNC(=O)c1ccc(CN(Cc2ccccc2OC(F)(F)F)C(=O)Nc2ccc3ccccc3c2)cc1 [Example 115, 3-{4-[1-(2-Trifluoromethoxybenzyl)-3-naphthalene-2-ylureidomethyl]benzoylamino)propionic acid]"
3,> 50,"O=C(O)CCNC(=O)c1ccc(CN(CC2(O)CCCCC2)C(=O)Nc2ccc3c(c2)OCO3)cc1 [Example 123, 3-{4-[1-(1-Hydroxycyclohexylmethyl)-3-(3,4-methylenedioxyphenyl)ureidomethyl]benzoylamino)propionic acid]"
4,> 50,"O=C(O)CCNC(=O)c1ccc(CN(C(=O)Nc2ccc(C(=O)O)cc2)c2ccc3c(c2)OCO3)cc1 [Example 184, 4-{3-(Benzo[1,3]dioxo-5-yl)-3-[4-(2-carboxyethylcarbamoyl)benzyl]ureido}benzoic acid]"
5,> 50,"O=C(O)CCCOc1ccc(CN(C(=O)Nc2ccc(OC(F)(F)F)cc2)C2C[C@H]2c2ccccc2)cc1 (stereo in doubt) [Example 222, 4-{4-[1-(2-Phenylcyclopropyl)-3-(4-trifluoromethoxyphenyl)ureidomethyl]phenoxy}butyric acid]"
6,> 50,"COc1cc(CN(Cc2ccc(C(=O)NCCC(=O)O)cc2)C(=O)Nc2ccc(C)cc2)ccc1O [Example 121, 3-{4-[1-(4-Hydroxy-3-methoxybenzyl)-3-(4-methylphenyl)ureidomethyl]benzoylamino)propionic acid]"
7,> 50,"O=C(O)CCCOc1ccc(CN(C(=O)Nc2ccc(C(=O)O)cc2)c2ccc(C3CCCCC3)cc2)cc1 [Example 218, 4-[3-[4-(3-Carboxypropoxy)benzyl]-3-(4-cyclohexylphenyl)ureido]benzoic acid]"
8,> 50,"O=C(O)CCNC(=O)c1ccc(CN(Cc2ccc(C(F)(F)F)cc2)C(=O)Nc2ccc3ccccc3c2)s1 [Example 128, 3-{5-[1-(4-Trifluoromethylbenzyl)-3-naphthalene-2-ylureidomethyl]thiophene-2-carbonylamino)propionic acid]"

row,Compound,inhibition at 1 µM [%]
1,"CCCCOc1ccc(NC(=O)N(Cc2ccc(C(=O)NCCC(=O)O)cc2)Cc2ccc(C(F)(F)F)cc2)cc1 [Example 119, 3-{4-[1-(4-Trifluoromethylbenzyl)-3-(4-butoxyphenyl)ureidomethyl]benzoylamino)propionic acid]",> 50

# Target: T2, human glucagon receptor (Homo sapiens, UniProt P47871)
# T2 construct: expressed in transfected cells; host or cells: BHK (baby hamster kidney) cells
# Assay: Glucagon Binding Assay (III)
# Details: BHK cell membranes, WGA SPA beads, 125I-glucagon; read-out: Glu Bd Assay (III) IC50
# Procedure, shortened: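 Non-specific binding was set with 500 nM glucagon in this SPA-type binding assay using WGA beads. The receptor source was a membrane preparation, kept on ice or at 4 °C, from BHK cells transfected with the human receptor. Scintillation counts were taken after 4 hours of shaking and 8–48 hours of settling.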
# T2 sequence (P47871 26-477): as above
row,IC50 [nM],Compound
1,30,"O=C(O)CCNC(=O)c1ccc(CN(C(=O)Nc2cc(Cl)cc(Cl)c2)c2ccc(C3CCCCC3)cc2)cc1 [Example 232, 3-{4-[1-(4-Cyclohexylphenyl)-3-(3,5-dichlorophenyl)ureidomethyl]benzoylamino}propionic acid]"
2,21,"O=C(Nc1nn[nH]n1)c1ccc(CN(C(=O)Nc2ccc(Cl)c(C(F)(F)F)c2)c2ccc(C3CCCCC3)cc2)cc1 [Example 282, 4-[3-(4-Chloro-3-trifluoromethylphenyl)-1-(4-cyclohexylphenyl)ureidomethyl]-N-(2H-tetrazol-5-yl)benzamide]"
3,464,"CC(C)(C)C1CCC(N(Cc2ccc(C(=O)Nc3nn[nH]n3)cc2)C(=O)C=Cc2c(Cl)cccc2Cl)CC1 (stereo not shown) [Example 477, 4-({(4-tert-Butylcyclohexyl)-[3-(2,6-dichlorophenyl)acryloyl]amino}methyl)-N-(2H-tetrazol-5-yl)benzamide]"
4,51,"O=C(O)CCNC(=O)c1ccc(CN(C(=O)Nc2ccc(OC(F)(F)F)cc2)c2ccc(C3CCCCC3)cc2)cc1 [Example 179, 3-{4-[1-(4-Cyclohexylphenyl)-3-(4-trifluoromethoxyphenyl)ureidomethyl]benzoylamino}propionic acid]"
